# Results reported in patent publication US20170050962A1, “IMIDAZO[1,2-A]PYRIDINES AS STIMULATORS OF SOLUBLE GUANYLATE CYCLASE FOR TREATING CARDIOVASCULAR DISEASES” (BAYER PHARMA AKTIENGESELLSCHAFT, priority 2014, published 2017).
# Tested on: recombinant guanylate cyclase reporter cell line
# Experiment: Effect on a recombinant guanylate cyclase reporter cell line
# Format: cell-based
# Conditions: in some cases mean values for individual determinations
# Procedure: B-2. Effect on a Recombinant Guanylate Cyclase Reporter Cell Line
# The cellular activity of the compounds according to the invention is determined using a recombinant guanylate cyclase reporter cell line, as described in F. Wunder et al., Anal. Biochem. 339, 104-112 (2005).
# Representative MEC values (MEC=minimum effective concentration) for the compounds of the invention are shown in the table below (in some cases as mean values for individual determinations): […]
row,Structure (SMILES),MEC (minimum effective concentration)
1,"Cc1cc(OCc2c(F)cccc2F)c2nc(C)c(C3=CC(=NO)CC(C)(C)N3)n2c1 (stereo in doubt) [Example 5, (4E)-6-{8-[(2,6-Difluorobenzyl)oxy]-2,6-dimethylimidazo[1,2-a]pyridin-3-yl}-N-hydroxy-2,2-dimethyl-2,3-dihydropyridine-4(1H)-imine]",0.03 µM
2,"Cc1cc(OCc2c(F)cccc2F)c2nc(C)c(-c3ccc(=O)n(CC(C)(C)N)c3)n2c1 [Example 1, 1-(2-Amino-2-methylpropyl)-5-{8-[(2,6-difluorobenzyl)oxy]-2,6-dimethylimidazo[1,2-a]pyridin-3-yl}pyridin-2(1H)-one]",1.0 µM
3,"Cc1cc(OCc2c(F)cccc2F)c2nc(C)c(-c3ccc(OCC(C)(C)N)nc3)n2c1 [Example 2, 1-[(5-{8-[(2,6-Difluorobenzyl)oxy]-2,6-dimethylimidazo[1,2-a]pyridin-3-yl}pyridin-2-yl)oxy]-2-methylpropan-2-amine]",0.3 µM
4,"Cc1cc(OCc2c(F)cccc2F)c2nc(C)c(-c3ccn(CC(C)(C)N)c(=O)c3)n2c1 [Example 3, 1-(2-Amino-2-methylpropyl)-4-{8-[(2,6-difluorobenzyl)oxy]-2,6-dimethylimidazo[1,2-a]pyridin-3-yl}pyridin-2(1H)-one]",1.0 µM
5,"Cc1cc(OCc2c(F)cccc2F)c2nc(C)c(-c3ccnc(OCC(C)(C)N)c3)n2c1 [Example 4, 1-[(4-{8-[(2,6-Difluorobenzyl)oxy]-2,6-dimethylimidazo[1,2-a]pyridin-3-yl}pyridin-2-yl)oxy]-2-methylpropan-2-amine]",0.03 µM
6,"Cc1cc(OCc2c(F)cccc2F)c2nc(C)c(-c3nc(OCC(C)(C)N)n[nH]3)n2c1 [Example 6, 1-[(5-{8-[(2,6-Difluorobenzyl)oxy]-2,6-dimethylimidazo[1,2-a]pyridin-3-yl}-1H-1,2,4-triazol-3-yl)oxy]-2-methylpropan-2-amine]",3.0 µM
7,"Cc1cc(OCc2c(F)cccc2F)c2nc(C)c(-c3cc[nH]c(=O)c3)n2c1 [Example 8, 4-{8-[(2,6-Difluorobenzyl)oxy]-2,6-dimethylimidazo[1,2-a]pyridin-3-yl}pyridin-2(1H)-one]",1.0 µM
